Laboratory results from US7442513B2, “Method of screening for agents that modulate a homer signaling pathway” (The Johns Hopkins University, priority 2003, dated 2008).

Columns and labels:
[1] = tested on: TrpC1 binding to Homer1EVH1; assay: TrpC1 binding to GST-Homer1 EVH1 after treating TrpC1-expressing HEK293 cells with FK506; format: cell-based; details: 150 nM
Experimental: HEK293 cells that transiently express TrpC1 were treated with FK506 for indicted time prior to preparation of lysates and binding to GST-Homer. Note that FK506 treatment increases TrpC1 binding to Homer.
An observation from the Homer-TrpC1 binding data remained enigmatic. […] Additionally, certain point mutants of the C-terminal Homer ligand increase binding to Homer. […] The possibility that an FKBP homologue might bind mammalian TrpC1 and impact the binding of Homer was explored. As a first test of this hypothesis, the consequence of treating cells expressing TrpC1 with FK506, and then testing TrpC1 binding to GST-Homer was examined. HEK293 cells were transfected with wt TrpC1 and treated with 150 nM FK506 for times ranging from 15 min to 24 hrs. Cells lysates were prepared in 1% Triton and mixed with GST-Homer1 EVH1 and bound TrpC1 assayed by western blot. Lysates were also assayed to compare expression in each of the samples. […] This effect was detected as early as 30 min after addition of FK506 and persisted for 24 hrs. A peak of increased binding appeared at ˜6hrs. […] It was concluded that FK506 increases the binding of TrpC1 to Homer at a dose that is known to the relevant for FKBP.

mGluR5 binding to Homer = assay: mGluR5 binding to GST-Homer after treating mGluR5-expressing HEK293 cells with PPIase inhibitors (pull-down, western blot); format: cell-based; details: for effect on mGluR5 binding to GST-Homer: HEK293 cells expressing mGluR5, 1 micromolar in medium, differing intervals
Experimental: HEK293 cells were transfected with pRK5-mGluR5. 1 micromolar FK506 was added to the medium for differing intervals prior to harvesting and preparation of lysates in the indicated buffer, which include inhibitors of phosphatases and proteases. Lysates were mixed with glutathione agarose beads loaded with GST-Homer 3 EVH1 domain for 1 hr at 4 C. mGluR5 that bound to Homer was then analyzed by western blot. Lysates were also assayed to confirm expression of mGluR5 (lower panel). Note the increase in mGluR5 that binds to Homer from lysates of cells treated for 3 hrs or longer with FK506.
If PPIases regulate the conformational state of the mGluR5, it was anticipated that PPIase inhibitors would alter the ability of the mGluR5 to bind to Homer. To examine this hypothesis, Homer was expressed as a bacterial fusion protein with glutathione S-transferase (GST) and loaded the protein on a glutathione agarose bead. These binding assays are identical to those used previously to document the ligand consensus sequence in mGluR5 (Tu et al., 1998), and for analysis of the binding surfaces of Homer (Beneken et al., 2000).
Cells were treated for different times with PPIase inhibitors and then harvested in buffer containing protease and phosphatase inhibitors and 1% Triton detergent. Soluble lysates were then mixed with beads loaded with GST-Homer incubated for 1 hr at 4° C., washed several times and proteins eluted with SDS loading buffer. […] Increased binding was detected by 3 hrs and remained elevated for 24 hrs.

TrpC1 binding to Homer = assay: TrpC1 binding to GSTHomer after treating lysates of TrpC1-expressing HEK293 cells; details: for effect on TrpC1 binding to Homer: lysates treated with indicated concentrations
Experimental: TrpC1 was transiently expressed in HEK293 cells and lysates were treated with the indicated concentrations of FK506, GPI1046, cyclosporin A or aniracetam (negative control) and assayed for TrpC1 binding to GSTHomer. TrpC1 migrates as both a monomer and dimer. Note that FK506, GPI1046 and cyclosporin A (but not aniracetam) treatment results in increased TrpC1 binding to Homer.

[2] = molecular target: T1, TrpC1 binding to GST-FKBP52 (Homo sapiens, UniProt Q02790); assay: TrpC1 binding to GST-FKBP52 after pretreating cell lysates with PPIase inhibitors
T1 construct: expressed in transfected cells; host or cells: HEK293 cell lysate (TrpC1)
T1 sequence (Q02790 1-459): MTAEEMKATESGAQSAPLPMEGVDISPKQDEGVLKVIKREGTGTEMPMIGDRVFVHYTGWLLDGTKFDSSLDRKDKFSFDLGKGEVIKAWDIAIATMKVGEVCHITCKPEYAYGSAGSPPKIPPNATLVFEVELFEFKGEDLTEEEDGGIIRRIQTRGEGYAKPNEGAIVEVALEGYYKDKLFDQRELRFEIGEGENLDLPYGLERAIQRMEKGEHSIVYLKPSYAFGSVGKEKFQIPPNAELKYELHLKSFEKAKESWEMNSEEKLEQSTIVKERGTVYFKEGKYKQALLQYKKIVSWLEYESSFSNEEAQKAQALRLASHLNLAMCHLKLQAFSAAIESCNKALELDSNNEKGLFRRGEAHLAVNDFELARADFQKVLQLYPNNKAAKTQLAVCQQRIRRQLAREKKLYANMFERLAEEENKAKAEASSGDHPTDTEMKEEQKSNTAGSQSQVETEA
Excerpt: To further test this hypothesis, the binding of TrpC1 to GST-FKBP12 or GST-FKBP52 was examined. Also, the effect of pretreating cell lysates with FK506, GPI-1046, cyclosporin A or the control agent aniracetam (structurally similar to GPI-1946) was examined. The notion being that dissociation of endogenous FKBP would increase the availability of TrpC1 to bind GST-FKBP in vitro. The FK506 might also be expected to bind to GST-FKBP but because this protein is highly concentrated on the bead and is in vast excess to cellular FKBP, the net consequence of drug treatment would be increased binding of TrpC1 to GST-FKBP. In these assays, TrpC1 bound to FKBP52 (FIG. 15), but not to FKBP12. Binding of TrpC1 to GST-FKBP52 was increased by treatment with both FK506 and GPI1046. The effect of these agents was particularly robust for the dimeric TrpC1 species and was detected with 100 nM FK506 or GPI1046. These studies confirmed that TrpC1 is bound by Homer and FKBP52, and that treatment of cell lysates or cells with drugs that inhibit rotamase activity and dissociate rotamases from their target proteins, result in enhanced binding of TrpC1 to both Homer (FIG. 14) and FKBP52 (FIG. 15).

[3] = 1 micromolar, HEK293 cells expressing mGluR5

SMILES | earliest time at which increased TrpC1 binding was detected [1] | time for which increased TrpC1 binding persisted [1] | time of peak of increased TrpC1 binding [1] | time for which mGluR5 binding remained elevated (mGluR5 binding to Homer; [3]) | effect on TrpC1 binding to Homer (TrpC1 binding to Homer) | effect on TrpC1 binding to Homer at 10 nM (TrpC1 binding to Homer; 10 nM) | effect on TrpC1 binding to Homer with higher doses or longer times (TrpC1 binding to Homer; doses higher than 10 nM or longer times) | effect on TrpC1 binding to Homer (TrpC1 binding to Homer; listed as GPI 1046) | mGluR5 binding after 12 or 24 hrs of treatment (mGluR5 binding to Homer; 1 micromolar, 12 or 24 hrs) | effect on expression of mGluR5 in lysates (mGluR5 binding to Homer; 1 micromolar, HEK293 cells) | treatment time of peak mGluR5 binding (mGluR5 binding to Homer; [3]) | treatment time within which mGluR5 binding increased (mGluR5 binding to Homer; [3]) | effect on mGluR5 binding to GST-Homer (mGluR5 binding to Homer) | effect on mGluR5 binding to GST-Homer (mGluR5 binding to Homer; listed as GPI 1046) | concentration at which increased TrpC1 binding to GST-FKBP52 was detected ([2]; dimeric TrpC1 species, pretreated lysates) | effect on binding of TrpC1 to GST-FKBP52 ([2]; pretreated cell lysates)
C=CC[C@@H]1/C=C(\C)C[C@H](C)C[C@H](OC)[C@H]2O[C@@](O)(C(=O)C(=O)N3CCCC[C@H]3C(=O)O[C@H](/C(C)=C/[C@@H]3CC[C@@H](O)[C@H](OC)C3)[C@H](C)[C@@H](O)CC1=O)[C@H](C)C[C@@H]2OC [FK506] | 30 min | 24 h | ~6 h | 24 h |  |  |  |  |  |  |  |  |  |  |  | 
COc1ccc(C(=O)N2CCCC2=O)cc1 [aniracetam] |  |  |  |  | not |  |  |  |  |  |  |  |  |  |  | 
CCC(C)(C)C(=O)C(=O)N1CCC[C@H]1C(=O)OCCCc1cccnc1 [GPI1046] |  |  |  |  | increased | potent enhancement | decreases | enhanced | decreased | did not significantly alter | ≤ 3 h | ≤ 30 min | time-dependent increase | effective in increasing | 100 nM | increased
